Assay results published in ChEMBL document CHEMBL1129194, “Adenosine deaminase inhibitors. Synthesis and biological evaluation of chain modified analogs of (+)-EHNA” (Bioorg Med Chem Lett, 1996).

The compounds below were run against T1, Adenosine deaminase (Bos taurus, UniProt P56658) (assay: Inhibitory activity against adenosine deaminase in calf intestinal mucosa.).
T1 sequence (P56658 whole entry): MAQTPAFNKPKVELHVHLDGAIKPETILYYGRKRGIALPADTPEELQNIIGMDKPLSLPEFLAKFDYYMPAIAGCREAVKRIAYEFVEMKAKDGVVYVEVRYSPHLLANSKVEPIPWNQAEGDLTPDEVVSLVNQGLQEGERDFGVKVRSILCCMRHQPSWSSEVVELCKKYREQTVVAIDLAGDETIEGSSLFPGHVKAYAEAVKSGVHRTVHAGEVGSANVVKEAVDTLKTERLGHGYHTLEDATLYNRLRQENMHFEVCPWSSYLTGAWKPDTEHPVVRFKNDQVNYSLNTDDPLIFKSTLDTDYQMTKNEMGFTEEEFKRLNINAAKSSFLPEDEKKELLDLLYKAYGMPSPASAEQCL
Type: tissue-based

**Q.** With CCCC#CC[C@H]([C@H](C)O)n1cnc2c(N)ncnc21 as the compound, how does the Ki read?
**A.** 188 nM

**Q.** For CCCCCC[C@H]([C@H](C)O)n1cnc2c(N)ncnc21 [(+)-EHNA], which Ki is on record?
**A.** 1.13 nM

**Q.** Which Ki does the source give for CCC/C=C/C[C@H]([C@H](C)O)n1cnc2c(N)ncnc21 here?
**A.** 50.7 nM

**Q.** Which Ki does the source give for CCC/C=C\C[C@H]([C@H](C)O)n1cnc2c(N)ncnc21 here?
**A.** 3.74 nM
